# Laboratory results published in patent publication US11771765B2, “Light augmented treatment method” (The Procter & Gamble Company, priority 2019, dated 2023).
# Tests used:
# [1] = test system: M. furfur cells; experiment: Non-chelator antifungals with or without light, M. furfur growth (Table 11); format: cell-based, Malassezia furfur; conditions: for effect of adding light on efficacy: non-chelator antifungals, OD values of Table 11
# Experimental: (§1) M. furfur cells are exposed to other antifungals that are not considered chelators (i.e. selenium sulfide (SeSx), Sulfur, Climbazole, and Terbinafine). After treatment, cells are then exposed to light, or not exposed to light. Both OD are measured to measure growth and PPIX levels are measured.
# [2] = test system: protoporphyrin IX (PPIX); experiment: Protoporphyrin IX levels in treated M. furfur cells by HPLC; format: cell-based; conditions: for PPIX levels upon treatment: non-chelator antifungals, Table 11
# Description: PPIX absorb light in the 400 nm range, and when light is absorbed, PPIX transitions to an excited triplet state that can react with triplet oxygen to produce singlet oxygen or the excited porphyrin can generate ROS through single electron processes. These reactive species result in a loss of cell viability.
# as §1
# [3] = test system: protoporphyrin IX (PPIX); experiment: as above; format: cell-based
# [4] = test system: M. furfur CBS 7982; experiment: Fractional Inhibitor Concentration (FIC): antimicrobial plus 409 nm light on M. furfur growth; format: cell-based, Malassezia furfur; conditions: for growth, OD 600 nm: 27 h growth
# Experimental: Fractional Inhibitor Concentration (FIC) is a conventional methodology for evaluating the interaction of two antimicrobial chemicals. […] In an embodiment of the present invention, FIC is used to determine combinatorial effects of one chemical and exposure to light on Malassezia growth and/or viability in an in vitro system.
# • 1. M. furfur CBS 7982 cells are exposed to a varying concentrations of an antimicrobial active (e.g. ZPT, Piroctone Olamine) for a specified amount of time (e.g. 2 min to 3 hours). • 2. After exposure, the antimicrobial is washed away by centrifugation of the cells and a series of washes • 3. Cells are then exposed to light at a wavelength of 409 nm for varying lengths of time • 4. Cells are then allowed to grow up overnight (e.g. 17 h) to determine the impact of the treatment on viability and growth of the organism by measuring OD600 II. Data Analysis: • 1. Inhibition of growth is determined to be where the OD value obtained is <=50% of the untreated control • 2. The lowest concentration value of the antimicrobial agent which inhibits growth is determined • 3. Likewise, the shortest light exposure time is determined that gives growth inhibition • 4. Finally, the combination of the lowest concentration of the antimicrobial and the shortest light exposure time that provides growth inhibition is determined • 5. The FIC value is determined using the calculation below:
# [formula] • 6. The combinatorial effect of the antimicrobial and light is classified according to the chart below: […]
# M. furfur is incubated for one hour with varying concentrations of Piroctone Olamine. Cell pellets are collected by centrifugation so that most of the anti-fungal material has been removed. The cell pellet is suspended in PBS and 500 uL samples are distributed to four 12 well plates and treated with light (409 nm) for 1, 10 or 60 minutes or stored in the dark. Samples are then diluted into mDixon, and incubated for 16 h with subsequent growth measured by OD 600 nm.
# M. furfur is incubated for one hour with varying concentrations of Hinokitiol. Cell pellets are collected by centrifugation so that most of the anti-fungal material has been removed. The cell pellet is suspended in PBS and 500 uL samples are distributed to four 12 well plates and treated with light (409 nm) for 1, 10 or 60 minutes or stored in the dark. Samples are then diluted into mDixon, and incubated for 27 h with subsequent growth measured by OD 600 nm. […]
smiles,measurement,setting,value
CN(C/C=C/C#CC(C)(C)C)Cc1cccc2ccccc12 [Terbinafine],OD600,"[1]; 0.5 ppm, Dark (second part)",12.5
same,OD600,"[1]; 0.5 ppm, Light (second part)",10.6
same,effect of adding light on efficacy,[1],does not increase their efficacy
same,PPIX,"[2]; 0.5 ppm (Table 11, second part)",6.7 ng
same,PPIX levels upon treatment,[2],PPIX levels do not change
CC(C)(C)C(=O)C(Oc1ccc(Cl)cc1)n1ccnc1 (stereo not shown) [Climbazole],OD600,"[1]; 1 ppm, Dark (second part)",11.9
same,OD600,"[1]; 1 ppm, Light (second part)",10.2
same,effect of adding light on efficacy,[1],does not increase their efficacy
same,PPIX,"[2]; 1 ppm (Table 11, second part)",4.5 ng
same,PPIX levels upon treatment,[2],PPIX levels do not change
S1SSSSSSS1 [Sulfur],OD600,"[1]; 8 ppm, Dark",4.52
same,OD600,"[1]; 8 ppm, Light",3.62
same,effect of adding light on efficacy,[1],does not increase their efficacy
same,PPIX,[2]; 8 ppm (Table 11),1.6 ng
same,PPIX levels upon treatment,[2],PPIX levels do not change
"S=[Se]=S [SeSx, selenium sulfide]",OD600,"[1]; 0.4 ppm, Dark",3.31
same,OD600,"[1]; 0.4 ppm, Light",2.27
same,OD600,"[1]; 0.8 ppm, Dark",1.51
same,OD600,"[1]; 0.8 ppm, Light",1.44
same,effect of adding light on efficacy,[1],does not increase their efficacy
same,PPIX,[3]; 0.4 ppm (Table 11),2.6 ng
same,PPIX,[3]; 0.8 ppm (Table 11),1.2 ng
same,PPIX levels upon treatment,[2],PPIX levels do not change
CC(C)c1cccc(=O)c(O)c1 [Hinokitiol],shortest light exposure time when applied in combination to give growth inhibition,"[4]; 409 nm light, with the lowest inhibiting concentration",1 min
same,"growth, OD 600 nm","[4]; Hinokitiol 3 ppm 1 h, 409 nm light 0 min",8.3
same,"growth, OD 600 nm","[4]; Hinokitiol 3 ppm 1 h, 409 nm light 1 min",7.9
same,"growth, OD 600 nm","[4]; Hinokitiol 3 ppm 1 h, 409 nm light 10 min",4.6
same,"growth, OD 600 nm","[4]; Hinokitiol 3 ppm 1 h, 409 nm light 60 min",4.5
same,"growth, OD 600 nm","[4]; Hinokitiol 6 ppm 1 h, 409 nm light 0 min",8.5
same,"growth, OD 600 nm","[4]; Hinokitiol 6 ppm 1 h, 409 nm light 1 min",1.8
same,"growth, OD 600 nm","[4]; Hinokitiol 6 ppm 1 h, 409 nm light 10 min",0.3
same,"growth, OD 600 nm","[4]; Hinokitiol 6 ppm 1 h, 409 nm light 60 min",0.4
same,"growth, OD 600 nm","[4]; Hinokitiol 12 ppm 1 h, 409 nm light 0 min",8.6
same,"growth, OD 600 nm","[4]; Hinokitiol 12 ppm 1 h, 409 nm light 1 min",2.3
same,"growth, OD 600 nm","[4]; Hinokitiol 12 ppm 1 h, 409 nm light 10 min",0.2
same,"growth, OD 600 nm","[4]; Hinokitiol 12 ppm 1 h, 409 nm light 60 min",0.3
same,"growth, OD 600 nm","[4]; Hinokitiol 24 ppm 1 h, 409 nm light 0 min",6.1
same,"growth, OD 600 nm","[4]; Hinokitiol 24 ppm 1 h, 409 nm light 1 min",0.6
same,"growth, OD 600 nm","[4]; Hinokitiol 24 ppm 1 h, 409 nm light 10 min",0.2
same,"growth, OD 600 nm","[4]; Hinokitiol 24 ppm 1 h, 409 nm light 60 min",0.2
same,"growth, OD 600 nm","[4]; Hinokitiol 48 ppm 1 h, 409 nm light 0 min",5.7
same,"growth, OD 600 nm","[4]; Hinokitiol 48 ppm 1 h, 409 nm light 1 min",0.2
same,"growth, OD 600 nm","[4]; Hinokitiol 48 ppm 1 h, 409 nm light 10 min",0.1
same,"growth, OD 600 nm","[4]; Hinokitiol 48 ppm 1 h, 409 nm light 60 min",0.1
same,"growth, OD 600 nm","[4]; Hinokitiol 96 ppm 1 h, 409 nm light 0 min",5.9
same,"growth, OD 600 nm","[4]; Hinokitiol 96 ppm 1 h, 409 nm light 1 min",0.3
same,"growth, OD 600 nm","[4]; Hinokitiol 96 ppm 1 h, 409 nm light 10 min",0.0
same,"growth, OD 600 nm","[4]; Hinokitiol 96 ppm 1 h, 409 nm light 60 min",0.0
same,lowest concentration to give growth inhibition,"[4]; antimicrobial alone, no light, inhibition = OD <=50% of untreated control",> 96 ppm
same,FIC value,[4]; antimicrobial plus 409 nm light,0.08
same,Combinatorial Effect,"[4]; antimicrobial plus 409 nm light, classified by FIC value",synergistic
same,lowest concentration when applied in combination with light to give growth inhibition,"[4]; with 409 nm light, inhibition = OD <=50% of untreated control",6 ppm
